Our source for the glass transition temperature values is the PolyMetriX glass transition set.

In turn, `*=Cc1ccc(/C=N/c2c(-c3ccccc3)cc(-c3ccc(-c4cc(-c5ccccc5)c(N=*)c(-c5ccccc5)c4)cc3)cc2-c2ccccc2)cc1` (repeat unit) gave a glass transition temperature of 300.00 °C.
Next, `*C(=O)Nc1ccc(Cc2ccc(NC(=O)c3ccc4c(c3)C(=O)N(c3ccc(/N=N/c5ccc(C)cc5)c(N5C(=O)c6ccc(*)cc6C5=O)c3)C4=O)c(C)c2)cc1C` (repeat unit): 257.00 °C.
As to `*C(=O)Nc1ccc(Oc2ccc(C3(c4ccc(Oc5ccc(NC(=O)c6ccc7c(c6)C(=O)N(c6ccc(C)c(N8C(=O)c9ccc(*)cc9C8=O)c6)C7=O)cc5)cc4)NC(=O)c4ccccc43)cc2)cc1` (repeat unit), the glass transition temperature came out at 315.00 °C.
With `*C(=O)c1cc2c(cc1Cl)C(=O)N(c1cc(N3C(=O)c4cc(*)c(Cl)cc4C3=O)cc(C(C)(C)C)c1)C2=O` (repeat unit), the glass transition temperature was found to be 290.00 °C.
As to `*C(=O)c1ccc(-c2ccc(C(C)(C)c3ccc(-c4ccc(C(=O)c5ccc6c(c5)C(=O)N(c5ccc(Cc7ccc(N8C(=O)c9ccc(*)cc9C8=O)cc7)cc5)C6=O)cc4)cc3)cc2)cc1` (repeat unit), the glass transition temperature turned out to be 216.00 °C.
With `*C(=O)c1ccc2c(c1)C(=O)N(c1cc(N3C(=O)c4ccc(*)cc4C3=O)c(C)cc1C)C2=O` (repeat unit), the glass transition temperature was found to be 305.00 °C.
Next, `*C(=O)c1ccc2c(c1)C(=O)N(c1cc(OCCCC)cc(N3C(=O)c4ccc(*)cc4C3=O)c1)C2=O` (repeat unit): 244.00 °C; `*C(=O)c1ccc2c(c1)C(=O)N(c1cc(OCCCCCCCCCCCCCCCC)cc(N3C(=O)c4ccc(*)cc4C3=O)c1)C2=O` (repeat unit): 179.00 °C; `*C(=O)c1ccc2c(c1)C(=O)N(c1ccc(N(c3ccccc3)c3ccc(N4C(=O)c5ccc(*)cc5C4=O)cc3)cc1)C2=O` (repeat unit): 270.00 °C.
Next, `*C(=O)c1ccc2c(c1)C(=O)N(c1ccc(OCCOc3ccc(N4C(=O)c5ccc(*)cc5C4=O)cc3)cc1)C2=O` (repeat unit): 246.00 °C; `*C(=O)c1ccc2c(c1)C(=O)N(c1ccc(Oc3ccc(C(=O)c4cccc(C(=O)c5ccc(Oc6ccc(N7C(=O)c8ccc(*)cc8C7=O)cc6C(F)(F)F)cc5)n4)cc3)c(C(F)(F)F)c1)C2=O` (repeat unit): 225.20 °C; `*CC(O)COc1c(Cl)cc(C(C)(C)c2cc(Cl)c(O*)c(Cl)c2)cc1Cl` (repeat unit): 135.00 °C.
Next, `*Oc1c(Cl)cc(C(C)(C)c2cc(Cl)c(OC(*)=O)c(Cl)c2)cc1Cl` (repeat unit): 227.00 °C; `*Oc1c(Cl)cc(C(C)(C)c2cc(Cl)c(OC(=O)CCCCC(*)=O)c(Cl)c2)cc1Cl` (repeat unit): 100.00 °C; `*Oc1c(OC)cc(-c2cc(OC)c(OC(=O)CCCCCCCCC(*)=O)c(OC)c2)cc1OC` (repeat unit): 94.00 °C.
For the compound `*Oc1c(OC)cc(-c2cc(OC)c(OC(=O)c3cccc(C(*)=O)c3)c(OC)c2)cc1OC` (repeat unit), the glass transition temperature turned out to be 252.00 °C.
The compound `*c1c(C)cc(C)c(N2C(=O)c3cccc(Oc4c(C)cc(-c5cc(C)c(Oc6cccc7c6C(=O)N(*)C7=O)c(C)c5)cc4C)c3C2=O)c1C` (repeat unit) yielded a glass transition temperature of 325.00 °C.
Next, `*c1cc(CC(=O)OCC)c(*)s1` (repeat unit): 56.70 °C; `*c1cc(CC(=O)OCCN(CC)c2ccc(/N=N/c3ccc([N+](=O)[O-])cc3)cc2)c(*)s1` (repeat unit): 102.00 °C; `*c1cc(CCCCBr)c(*)s1` (repeat unit): 19.00 °C.
`*c1cc(CCOc2ccc(/N=N/c3ccc(C#N)cc3)cc2)c(*)s1` (repeat unit): the glass transition temperature came out at 73.00 °C.
As to `*c1cc(OCCCC)c(*)cc1OCCCC` (repeat unit), the glass transition temperature was found to be 37.00 °C.
Turning to `*c1cc(OCCCCCCCCCCCC)cc(N2C(=O)c3ccc(Oc4ccc5c(c4)C(=O)N(*)C5=O)cc3C2=O)c1` (repeat unit), the glass transition temperature was 162.00 °C.
The compound `*c1cc(OCCCCCCCCCCCCCCCC)cc(N2C(=O)c3ccc(Oc4ccc5c(c4)C(=O)N(*)C5=O)cc3C2=O)c1` (repeat unit) displayed a glass transition temperature of 159.00 °C.
Next, `*c1ccc(-c2c(-c3ccc(-c4ccccc4)cc3)cc(-c3ccc(OCCCCCCCCCCOc4ccc(-c5cc(-c6ccc(-c7ccccc7)cc6)c(-c6ccc(-n7c(=O)c8cc9c(=O)n(*)c(=O)c9cc8c7=O)cc6)c(-c6ccc(-c7ccccc7)cc6)c5)cc4)cc3)cc2-c2ccc(-c3ccccc3)cc2)cc1` (repeat unit): 121.00 °C; `*c1ccc(-c2c(-c3ccccc3)nc3ccc(-c4ccc5nc(-c6ccccc6)c(*)c(-c6ccccc6)c5c4)cc3c2-c2ccccc2)cc1` (repeat unit): 370.00 °C; `*c1ccc(-c2c(-c3ccccc3)nc3ccc(Oc4ccc5nc(-c6ccccc6)c(*)c(-c6ccccc6)c5c4)cc3c2-c2ccccc2)cc1` (repeat unit): 311.00 °C.
The compound `*c1ccc(-c2cc(CCCCCCBr)c(*)s2)s1` (repeat unit) registered a glass transition temperature of 51.00 °C.
Next, `*c1ccc(-c2cc(CCCCCCCC)c(-c3ccc(-c4ccc(-c5sc(-c6ccc([Si](C)(C)[Si](*)(C)C)s6)cc5CCCCCCCC)s4)s3)s2)s1` (repeat unit): 12.00 °C.
Next, `*c1ccc(-c2cc(CCCCCCCC)c(-c3ccc(-c4ccc(-c5sc(-c6ccc([Si](C)(C)[Si](C)(C)[Si](C)(C)[Si](*)(C)C)s6)cc5CCCCCCCC)s4)s3)s2)s1` (repeat unit): 6.00 °C.
Next, `*c1ccc(-c2cc(CCCCCCCC)c(-c3ccc(-c4ccc(-c5sc(-c6ccc([Si](C)(C)[Si](C)(C)[Si](C)(C)[Si](C)(C)[Si](C)(C)[Si](C)(C)[Si](C)(C)[Si](*)(C)C)s6)cc5CCCCCCCC)s4)s3)s2)s1` (repeat unit): 13.00 °C.
Take `*c1ccc(-c2ccc(-c3cc(-c4ccc(Oc5ccc(-c6cc(*)nc7ccccc67)cc5)cc4)c4ccccc4n3)cc2)cc1` (repeat unit): the glass transition temperature was 326.00 °C.
In turn, `*c1ccc(-c2ccc(-c3cc(-c4ccccc4)c4cc(-c5ccc6nc(*)cc(-c7ccccc7)c6c5)ccc4n3)cc2)cc1` (repeat unit) displayed a glass transition temperature of 360.00 °C.
Next, `*c1ccc(-c2ccc(-c3cc(-c4ccccc4)c4cc5c(-c6ccccc6)cc(*)nc5cc4n3)cc2)cc1` (repeat unit): 392.00 °C; `*c1ccc(-c2ccc(-c3ccc(-c4ccc(*)n4CCCCCCCCCCCC)s3)s2)s1` (repeat unit): 52.00 °C.
In turn, `*c1ccc(-c2ccc(-c3ccc(-c4ccc(-c5ccc(*)n5CCCCCCCCCCCC)s4)s3)s2)s1` (repeat unit) gave a glass transition temperature of 54.00 °C.
For `*c1ccc(-c2ccc(-c3ccc(-c4ccc(N(*)c5ccc(C)cc5)cc4)c4c(C)ccc(C)c34)c3c(C)ccc(C)c23)cc1` (repeat unit), the glass transition temperature came out at 148.00 °C.
Next, `*c1ccc(-c2ccc(-c3ccc(-c4ccc([Si](*)(CCCC)CCCC)s4)s3)s2)s1` (repeat unit): 1.00 °C; `*c1ccc(-c2ccc(-c3ccc(-c4ccc([Si](CCCC)(CCCC)[Si](*)(CCCC)CCCC)s4)s3)s2)s1` (repeat unit): -1.00 °C.
Next, `*c1ccc(-c2ccc(-c3ccc(-c4cnc5ccc(-c6ccc7ncc(*)nc7c6)cc5n4)cc3)cc2)cc1` (repeat unit): 305.00 °C.
For the compound `*c1ccc(-c2ccc(-c3ccc(-n4c(=O)c5c(C(F)(F)F)c6c(=O)n(*)c(=O)c6c(C(F)(F)F)c5c4=O)cc3)cc2)cc1` (repeat unit), the glass transition temperature is 364.00 °C.
Turning to `*c1ccc(-c2ccc(-c3nc4ccc(-c5ccc6nc(*)c(-c7ccccc7)c(-c7ccccc7)c6c5)cc4c(-c4ccccc4)c3-c3ccccc3)cc2)cc1` (repeat unit), the glass transition temperature is 420.00 °C.
The compound `*c1ccc(-c2ccc(-n3c(=O)c4cc5c(=O)n(*)c(=O)c5cc4c3=O)cc2OC)c(OC)c1` (repeat unit) returned a glass transition temperature of 328.00 °C.
Next, `*c1ccc(-c2ccc(C(*)(C(F)(F)F)C(F)(F)F)cc2)cc1` (repeat unit): 264.00 °C; `*c1ccc(-c2ccc(C3(*)CCCCC3)cc2)cc1` (repeat unit): 287.00 °C; `*c1ccc(-c2ccc(C3(*)c4ccccc4-c4ccccc43)cc2)cc1` (repeat unit): 297.00 °C.
Next, `*c1ccc(-c2ccc(N(*)c3cc(C(F)(F)F)cc(C(F)(F)F)c3)cc2)cc1` (repeat unit): 209.00 °C; `*c1ccc(C2(c3ccc(-c4cc(-c5ccccc5)c5cc(C6(c7ccc8nc(*)cc(-c9ccccc9)c8c7)c7ccccc7C(=O)c7ccccc76)ccc5n4)cc3)c3ccccc3C(=O)c3ccccc32)cc1` (repeat unit): 390.00 °C.
The compound `*c1ccc(Cc2ccc(N3C(=O)c4cc(-c5ccc(C(C)(C)C)cc5)c(-c5cc6c(cc5-c5ccc(C(C)(C)C)cc5)C(=O)N(*)C6=O)cc4C3=O)cc2)cc1` (repeat unit) came in with a glass transition temperature of 360.00 °C.
Next, `*c1ccc(Cc2ccc(N3C(=O)c4cc(-c5ccc([Si](C)(C)C)cc5)c(-c5cc6c(cc5-c5ccc([Si](C)(C)C)cc5)C(=O)N(*)C6=O)cc4C3=O)cc2)cc1` (repeat unit): 348.00 °C; `*c1ccc(Oc2ccc(N3C(=O)c4cc(-c5ccc(C(C)(C)C)cc5)c(-c5cc6c(cc5-c5ccc(C(C)(C)C)cc5)C(=O)N(*)C6=O)cc4C3=O)cc2)cc1` (repeat unit): 370.00 °C; `*c1ccc(Oc2ccc(N3C(=O)c4cccc(Oc5c(C)cc(-c6cc(C)c(Oc7cccc8c7C(=O)N(*)C8=O)c(C)c6)cc5C)c4C3=O)cc2)cc1` (repeat unit): 298.00 °C.
Next, `*c1ccc2c(c1)C(=O)N(c1cc(OCCCCCCCCCCCC)cc(N3C(=O)c4ccc(C(*)(C(F)(F)F)C(F)(F)F)cc4C3=O)c1)C2=O` (repeat unit): 165.00 °C.
